Data set [1] concerns HIV-1 (IIIB) in MT-4 cells. Description: MT-4 HIV assay. Type of data set: cell-based. In a few lines: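 Antiviral activity was read by Cell Titer Glo after a 5-day, 37 °C culture of MT-4 cells pre-infected with a 1:250 dilution of HIV-1 (IIIB). Compounds were tested as threefold dilution series in complete RPMI. Controls were no drug, mock infection and 5 uM AZT.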
A summary of the method of data set [2]:
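LC/MS/MS read-out of parent compound remaining; in vitro t1/2 converted to Clint. Incubation: 1 uM compound, 0.5 mg/mL dog/rat/human liver microsomes, NADPH-regenerating system, duplicate sets, time-points 2–65 minutes.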

Where [3] appears, read: Human immunodeficiency virus 1, MT4, 120 h, HIV-1 (IIIB), MT-4 cells, 5 days, Cell Titer Glo, read-out: EC50.
[4] abbreviates: Human immunodeficiency virus 1, MT4, 120 h.
[5] abbreviates: human liver microsomes 0.5 mg/mL, 1 uM compound, NADPH.
Setting [6] is: rat liver microsomes 0.5 mg/mL, 1 uM compound, NADPH.

Where two headings read alike, the source gives them in different places. A value given as a limit tells only on which side of the number the result lay.

On to `COC(=O)N[C@H](C(=O)N[C@@H](Cc1ccc(C#Cc2ccc(N3CC4COCC(C3)N4C3COC3)nc2)cc1)[C@@H](O)CN(Cc1c(F)cc(-c2ccccn2)cc1F)NC(=O)[C@@H](NC(=O)OC)C(C)(C)C(F)(F)F)C(C)(C)C(F)(F)F` [Example 179, Methyl ((5S,8S,9S,14S)-11-(2,6-difluoro-4-(pyridin-2-yl)benzyl)-16,16,16-trifluoro-9-hydroxy-15,15-dimethyl-8-(4-((6-(9-(oxetan-3-yl)-3-oxa-7,9-diazabicyclo[3.3.1]nonan-7-yl)pyridin-3-yl)ethynyl)benzyl)-3,6,13-trioxo-5-(1,1,1-trifluoro-2-methylpropan-2-yl)-2-oxa-4,7,11,12-tetraazahexadecan-14-yl)carbamate], for which the EC50 in data set [1] (setting [3]) turned out to be 3.55 nM. In data set [2] (human, microsomes), the “Human Pred Cl.” value stood at 0.33 L/H/kg. The “Rat. Pred. Cl.” value in data set [2] (rat, microsomes) is 0.27 L/H/kg.
For `COC(=O)N[C@H](C(=O)NN(Cc1c(F)cc(-c2ccn(C3CC3)n2)cc1F)C[C@H](O)[C@H](Cc1ccc(C#Cc2ccc(N3C[C@H]4C[C@@H]3CN4C3COC3)nc2)cc1)NC(=O)[C@@H](NC(=O)OC)C(C)(C)C(F)(F)F)C(C)(C)C` [Example 90, Methyl ((5S,8S,9S,14S)-11-(4-(1-cyclopropyl-1H-pyrazol-3-yl)-2,6-difluorobenzyl)-9-hydroxy-15,15-dimethyl-8-(4-((6-((1R,4R)-5-(oxetan-3-yl)-2,5-diazabicyclo[2.2.1]heptan-2-yl)pyridin-3-yl)ethynyl)benzyl)-3,6,13-trioxo-5-(1,1,1-trifluoro-2-methylpropan-2-yl)-2-oxa-4,7,11,12-tetraazahexadecan-14-yl)carbamate], in data set [1] (setting [4]), a half-maximal effect (EC50) was put at 3.45 nM. Also, the “Human Pred Cl.” value in data set [2] (setting [5]) is on record as 0.14 L/H/kg. Moreover, the “Rat. Pred. Cl.” value in data set [2] (setting [6]) turned out to be 0.67 L/H/kg.
For the compound `COC(=O)N[C@H](C(=O)NN(Cc1ccc(-c2ccn(C(F)F)n2)cc1)C[C@H](O)[C@H](Cc1ccc(C#Cc2ccc(N3CC4CCC(C3)N4C3COC3)nc2)cc1)NC(=O)[C@@H](NC(=O)OC)C(C)(C)C(F)(F)F)C(C)(C)C` [Example 85, Methyl ((5S,8S,9S,14S)-11-(4-(1-(difluoromethyl)-1H-pyrazol-3-yl)benzyl)-9-hydroxy-15,15-dimethyl-8-(4-((6-(8-(oxetan-3-yl)-3,8-diazabicyclo[3.2.1]octan-3-yl)pyridin-3-yl)ethynyl)benzyl)-3,6,13-trioxo-5-(1,1,1-trifluoro-2-methylpropan-2-yl)-2-oxa-4,7,11,12-tetraazahexadecan-14-yl)carbamate], the EC50 in data set [1] (setting [3]) was found to be 3.78 nM. Besides, in data set [2] (human, microsomes), the “Human Pred Cl.” value was 0.13 L/H/kg. Moreover, in data set [2] (rat, microsomes), the “Rat. Pred. Cl.” value turned out to be 0.19 L/H/kg.
In turn, `COC(=O)N[C@H](C(=O)N[C@@H](Cc1ccc(C#Cc2cnc(N3CCNC(=O)C3)nc2)cc1)[C@@H](O)CN(Cc1c(F)cc(-c2ccn(C(F)F)n2)cc1F)NC(=O)[C@@H](NC(=O)OC)C(C)(C)C(F)(F)F)C(C)(C)C(F)(F)F` [Example 123, Methyl ((5S,8S,9S,14S)-11-(4-(1-(difluoromethyl)-1H-pyrazol-3-yl)-2,6-difluorobenzyl)-16,16,16-trifluoro-9-hydroxy-15,15-dimethyl-3,6,3-trioxo-8-(4-((2 (3-oxopiperazin-1-yl)pyrimidin-5-yl)ethynyl)benzyl)-5-(1,1,1-trifluoro-2-methylpropan-2-yl)-2-oxa-4,7,11,12-tetraazahexadecan-14-yl)carbamate] gave an EC50 in data set [1] (setting [4]) of 4.16 nM. Besides, the “Human Pred Cl.” value in data set [2] (setting [5]) was under 0.11 L/H/kg. The “Rat. Pred. Cl.” value in data set [2] (setting [6]) was under 0.18 L/H/kg.
For the compound `COC(=O)N[C@H](C(=O)N[C@@H](Cc1ccc(C#Cc2ccc(N3CC4CC(C3)N4C3COC3)nc2)cc1)[C@@H](O)CN(Cc1c(F)cc(-c2ccn(C3CC3)n2)cc1F)NC(=O)[C@@H](NC(=O)OC)C(C)(C)C(F)(F)F)C(C)(C)C(F)(F)F` [Example 40, Methyl ((5S,8S,9S,14S)-11-(4-(1-cyclopropyl-1H-pyrazol-3-yl)-2,6-difluorobenzyl)-16,16,16-trifluoro-9-hydroxy-15,15-dimethyl-8-(4-((6-(6-(oxetan-3-yl)-3,6-diazabicyclo[3.1.1]heptan-3-yl)pyridin-3-yl)ethynyl)benzyl)-3,6,13-trioxo-5-(1,1,1-trifluoro-2-methylpropan-2-yl)-2-oxa-4,7,11,12-tetraazahexadecan-14-yl)carbamate], in data set [1] (setting [3]), the EC50 was 3.89 nM. For the same compound, the “Human Pred Cl.” value in data set [2] (human, microsomes) is 0.13 L/H/kg. For the same compound, in data set [2] (rat, microsomes), the “Rat. Pred. Cl.” value amounted to 0.5 L/H/kg.
In the case of `COC(=O)N[C@H](C(=O)N[C@@H](Cc1ccc(C#Cc2cnc(N3CC4CCC(C3)N4C3COC3)nc2)cc1)[C@@H](O)CN(Cc1c(F)cc(-c2cnc(C)nc2)cc1F)NC(=O)[C@@H](NC(=O)OC)C(C)(C)C(F)(F)F)C(C)(C)C(F)(F)F` [Example 119, Methyl ((5S,8S,9S,14S)-11-(2,6-difluoro-4-(2-methylpyrimidin-5-yl)benzyl)-16,16,16-trifluoro-9-hydroxy-15,15-dimethyl-8-(4-((2-(8-(oxetan-3-yl)-3,8-diazabicyclo[3.2.1]octan-3-yl)pyrimidin-5-yl)ethynyl)benzyl)-3,6,13-trioxo-5-(1,1,1-trifluoro-2-methylpropan-2-yl)-2-oxa-4,7,11,12-tetraazahexadecan-14-yl)carbamate], the EC50 in data set [1] (setting [3]) is 3.66 nM. Moreover, the “Dog. Pred. Cl.” value in data set [2] (dog, microsomes) was 1.35 L/H/kg. In data set [2] (human, microsomes), the “Human Pred Cl.” value is given as under 0.11 L/H/kg. Moreover, in data set [2] (rat, microsomes), the “Rat. Pred. Cl.” value worked out at 0.27 L/H/kg.
`COC(=O)N[C@H](C(=O)NN(Cc1c(F)cc(-c2cnn(C(F)F)c2)cc1F)C[C@H](O)[C@H](Cc1ccc(C#Cc2ccc(N3CC4CCC(C3)N4C3COC3)nc2)cc1)NC(=O)[C@@H](NC(=O)OC)C(C)(C)C(F)(F)F)C(C)(C)C` [Example 86, Methyl ((5S,8S,9S,14S)-11-(4-(1-(difluoromethyl)-1H-pyrazol-4-yl)-2,6-difluorobenzyl)-9-hydroxy-15,15-dimethyl-8-(4-((6-(8-(oxetan-3-yl)-3,8-diazabicyclo[3.2.1]octan-3-yl)pyridin-3-yl)ethynyl)benzyl)-3,6,13-trioxo-5-(1,1,1-trifluoro-2-methylpropan-2-yl)-2-oxa-4,7,11,12-tetraazahexadecan-14-yl)carbamate]: the EC50 in data set [1] (setting [3]) was determined as 2.61 nM. Besides, the “Human Pred Cl.” value in data set [2] (human, microsomes) is given as under 0.11 L/H/kg. Besides, in data set [2] (rat, microsomes), the “Rat. Pred. Cl.” value is under 0.18 L/H/kg.
Turning to “Methyl ((5S,8S,9S,14S)-8-(4-((6-(3,8-diaza bicyclo[3.2.1]octan-3-yl)pyridin-3-yl)ethynyl)benzyl)-1-(4-(1-(difluoromethyl)-1H-pyrazol-3-yl)-2,6-difluorobenzyl)-16,16,16-trifluoro-9-hydroxy-15,15-dimethyl-3,6,13-trioxo-5-(1,1,1-trifluoro-2-methylpropan-2-yl)-2-oxa-4,7,11,12-tetraazahexadecan-14-yl)carbamate 2,2,2-trifluoroacetate [Example 161]”, in data set [1] (HIV-1 (IIIB), MT-4 cells, 5 days, Cell Titer Glo, read-out: EC50), the EC50 turned out to be 14 nM. Moreover, the “Human Pred Cl.” value in data set [2] (setting [5]) is on record as under 0.11 L/H/kg.
For `COC(=O)N[C@H](C(=O)N[C@@H](Cc1ccc(C#Cc2ccc(N3CC4COCC(C3)N4)nc2)cc1)[C@@H](O)CN(Cc1c(F)cc(-c2ccn(C(F)F)n2)cc1F)NC(=O)[C@@H](NC(=O)OC)C(C)(C)C(F)(F)F)C(C)(C)C(F)(F)F` [Example 26, Methyl ((5S,8S,9S,14S)-8-(4-((6-(3-oxa-7,9-diazabicyclo[3.3.1]nonan-7-yl)pyridin-3-yl)ethynyl)benzyl)-11-(4-(1-(difluoromethyl)-1H-pyrazol-3-yl)-2,6-difluorobenzyl)-16,16,16-trifluoro-9-hydroxy-15,15-dimethyl-3,6,13-trioxo-5-(1,1,1-trifluoro-2-methylpropan-2-yl)-2-oxa-4,7,11,12-tetraazahexadecan-14-yl)carbamate], the EC50 in data set [1] (setting [3]) is 4.24 nM. Further, in data set [2] (human, microsomes), the “Human Pred Cl.” value was under 0.11 L/H/kg. In addition, the “Rat. Pred. Cl.” value in data set [2] (rat, microsomes) is 1.6 L/H/kg.
As for `COC(=O)N[C@H](C(=O)N[C@@H](Cc1ccc(C#Cc2ccc(N3C[C@H]4C[C@@H]3CN4C3COC3)nc2)cc1)[C@@H](O)CN(Cc1c(F)cc(-c2ccn(CC(F)F)n2)cc1F)NC(=O)[C@@H](NC(=O)OC)C(C)(C)C(F)(F)F)C(C)(C)C(F)(F)F` [Example 43, Methyl ((5S,8S,9S,14S)-11-(4-(1-(2,2-difluoroethyl)-1H-pyrazol-3-yl)-2,6-difluorobenzyl)-16,16,16-trifluoro-9-hydroxy-15,15-dimethyl-8-(4-((6-((1R,4R)-5-(oxetan-3-yl)-2,5-diazabicyclo[2.2.1]heptan-2-yl)pyridin-3-yl)ethynyl)benzyl)-3,6,13-trioxo-5-(1,1,1-trifluoro-2-methylpropan-2-yl)-2-oxa-4,7,11,12-tetraazahexadecan-14-yl)carbamate], the EC50 in data set [1] (setting [4]) was found to be 2.87 nM. Besides, in data set [2] (dog liver microsomes 0.5 mg/mL, 1 uM compound, NADPH), the “Dog. Pred. Cl.” value was 1.66 L/H/kg. Moreover, in data set [2] (setting [5]), the “Human Pred Cl.” value worked out at 0.16 L/H/kg. The “Rat. Pred. Cl.” value in data set [2] (setting [6]) is on record as 1.01 L/H/kg.
As to `COC(=O)N[C@H](C(=O)N[C@@H](Cc1ccc(C#Cc2ccc(N3C[C@@H]4CN(C5COC5)C[C@@H]4C3)nc2)cc1)[C@@H](O)CN(Cc1c(F)cc(-c2ccn(C(F)F)n2)cc1F)NC(=O)[C@@H](NC(=O)OC)C(C)(C)C(F)(F)F)C(C)(C)C(F)(F)F` [Example 165, Methyl ((5S,8S,9S,14S)-11-(4-(1-(difluoromethyl)-1H-pyrazol-3-yl)-2,6-difluorobenzyl)-16,16,16-trifluoro-9-hydroxy-15,15-dimethyl-8-(4-((6-((3aR,6aS)-5-(oxetan-3-yl)hexahydropyrrolo[3,4-c]pyrrol-2(1H)-yl)pyridin-3-yl)ethynyl)benzyl)-3,6,13-trioxo-5-(1,1,1-trifluoro-2-methylpropan-2-yl)-2-oxa-4,7,11,12-tetraazahexadecan-14-yl)carbamate], in data set [1] (setting [3]), the EC50 came to 4.05 nM. Moreover, the “Human Pred Cl.” value in data set [2] (setting [5]) turned out to be 0.56 L/H/kg. Further, in data set [2] (setting [6]), the “Rat. Pred. Cl.” value was determined as 3.2 L/H/kg.

A word on the EC50: it is the concentration needed to bring the measured effect to its halfway point.

These data come from US10294234B2, “HIV inhibitor compounds” (priority 2017, dated 2019).
